{"source": "paper PMC10041525", "about": "“New Dual Inhibitors of Bacterial Topoisomerases with Broad-Spectrum Antibacterial Activity and In Vivo Efficacy against Vancomycin-Intermediate Staphylococcus aureus” (Journal of Medicinal Chemistry, 2023)", "key": {"[1]": {"system": "100 A. baumannii strains (50 MDR, 50 non-MDR)", "test": "MIC broth microdilution at IHMA Europe, panel of 100 strains", "format": "cell-based", "settings": "for MIC / MIC50 / MIC90: Acinetobacter baumannii; for MIC50: read-out: MIC 50; for MIC90: read-out: MIC 90"}, "[2]": {"system": "P. aeruginosa ATCC 27853", "test": "IHMA QC MIC", "format": "cell-based"}}, "note": "Like-named read-outs stand apart in the source and are kept apart here.", "data": [{"smiles": "CN(C)c1cc(NC(=O)CNC(C)(C)C)c(O)c2c1C[C@H]1C[C@H]3[C@H](N(C)C)C(O)=C(C(N)=O)C(=O)[C@@]3(O)C(O)=C1C2=O", "note": "[Tigecycline, tigecycline]", "values": [{"measurement": "MIC", "setting": "[1]; A. baumannii IHMA 2129256, Qatar 2019, Non-MDR, read-out: MIC", "value": 0.12, "unit": "µg/mL"}, {"measurement": "MIC", "setting": "[1]; A. baumannii IHMA 2154584, Israel 2020, MDR, read-out: MIC", "value": 2, "unit": "µg/mL"}, {"measurement": "MIC", "setting": "[1]; A. baumannii IHMA 2155340, Kenya 2020, MDR, read-out: MIC", "value": 4, "unit": "µg/mL"}, {"measurement": "MIC", "setting": "[1]; A. baumannii IHMA 2156634, Turkey 2020, MDR, read-out: MIC", "value": 4, "unit": "µg/mL"}, {"measurement": "MIC", "setting": "[1]; A. baumannii IHMA 2156709, Turkey 2020, MDR, read-out: MIC", "value": 4, "unit": "µg/mL"}, {"measurement": "MIC", "setting": "[1]; A. baumannii IHMA 2157614, Australia 2020, Non-MDR, read-out: MIC", "value": 0.25, "unit": "µg/mL"}, {"measurement": "MIC", "setting": "[1]; A. baumannii IHMA 2177232, Lithuania 2020, MDR, read-out: MIC", "value": 8, "unit": "µg/mL"}, {"measurement": "MIC", "setting": "[1]; A. baumannii IHMA 2177489, Lithuania 2020, MDR, read-out: MIC", "value": 4, "unit": "µg/mL"}, {"measurement": "MIC", "setting": "[1]; A. baumannii IHMA 2178574, Ukraine 2020, Non-MDR, read-out: MIC", "value": 0.25, "unit": "µg/mL"}, {"measurement": "MIC", "setting": "[1]; A. baumannii IHMA 2180134, Malaysia 2020, Non-MDR, read-out: MIC", "value": 0.25, "unit": "µg/mL"}, {"measurement": "MIC", "setting": "[1]; A. baumannii IHMA 2180142, Malaysia 2020, MDR, read-out: MIC", "value": 2, "unit": "µg/mL"}, {"measurement": "MIC", "setting": "[1]; A. baumannii IHMA 2181370, Morocco 2020, MDR, read-out: MIC", "value": 1, "unit": "µg/mL"}, {"measurement": "MIC", "setting": "[1]; A. baumannii IHMA 2183729, Argentina 2020, MDR, read-out: MIC", "value": 1, "unit": "µg/mL"}, {"measurement": "MIC", "setting": "[1]; A. baumannii IHMA 2183849, Argentina 2020, Non-MDR, read-out: MIC", "value": 0.25, "unit": "µg/mL"}, {"measurement": "MIC", "setting": "[1]; A. baumannii IHMA 2184382, Japan 2020, Non-MDR, read-out: MIC", "value": 0.12, "unit": "µg/mL"}, {"measurement": "MIC", "setting": "[1]; A. baumannii IHMA 2193375, Venezuela 2020, MDR, read-out: MIC", "value": 1, "unit": "µg/mL"}, {"measurement": "MIC", "setting": "[1]; A. baumannii IHMA 2193485, Venezuela 2020, Non-MDR, read-out: MIC", "value": 0.12, "unit": "µg/mL"}, {"measurement": "MIC", "setting": "[1]; A. baumannii IHMA 2193607, Venezuela 2020, MDR, read-out: MIC", "value": 0.5, "unit": "µg/mL"}, {"measurement": "MIC", "setting": "[1]; A. baumannii IHMA 2195460, Italy 2020, MDR, read-out: MIC", "value": 1, "unit": "µg/mL"}, {"measurement": "MIC", "setting": "[1]; A. baumannii IHMA 2196914, South Africa 2020, MDR, read-out: MIC", "value": 4, "unit": "µg/mL"}, {"measurement": "MIC", "setting": "[1]; A. baumannii IHMA 2196959, South Africa 2020, MDR, read-out: MIC", "value": 2, "unit": "µg/mL"}, {"measurement": "MIC", "setting": "[1]; A. baumannii IHMA 2203763, Spain 2020, MDR, read-out: MIC", "value": 2, "unit": "µg/mL"}, {"measurement": "MIC", "setting": "[1]; A. baumannii IHMA 2205144, Korea, South 2020, MDR, read-out: MIC", "value": 2, "unit": "µg/mL"}, {"measurement": "MIC", "setting": "[1]; A. baumannii IHMA 2206459, Taiwan 2020, MDR, read-out: MIC", "value": 2, "unit": "µg/mL"}, {"measurement": "MIC", "setting": "[1]; A. baumannii IHMA 2206507, Taiwan 2020, Non-MDR, read-out: MIC", "value": 0.12, "unit": "µg/mL"}, {"measurement": "MIC", "setting": "[1]; A. baumannii IHMA 2212575, Hungary 2020, Non-MDR, read-out: MIC", "value": 0.5, "unit": "µg/mL"}, {"measurement": "MIC", "setting": "[1]; A. baumannii IHMA 2215307, Hong Kong 2020, Non-MDR, read-out: MIC", "value": 0.25, "unit": "µg/mL"}, {"measurement": "MIC", "setting": "[1]; A. baumannii IHMA 2216586, Taiwan 2020, MDR, read-out: MIC", "value": 2, "unit": "µg/mL"}, {"measurement": "MIC", "setting": "[1]; A. baumannii IHMA 2223200, Colombia 2020, Non-MDR, read-out: MIC", "value": 0.25, "unit": "µg/mL"}, {"measurement": "MIC", "setting": "[1]; A. baumannii IHMA 2224017, Panama 2020, MDR, read-out: MIC", "value": 2, "unit": "µg/mL"}, {"measurement": "MIC", "setting": "[1]; A. baumannii IHMA 2224303, Panama 2020, Non-MDR, read-out: MIC", "value": 0.5, "unit": "µg/mL"}, {"measurement": "MIC", "setting": "[1]; A. baumannii IHMA 2231797, Greece 2020, MDR, read-out: MIC", "value": 4, "unit": "µg/mL"}, {"measurement": "MIC", "setting": "[1]; A. baumannii IHMA 2233099, Guatemala 2020, MDR, read-out: MIC", "value": 2, "unit": "µg/mL"}, {"measurement": "MIC", "setting": "[1]; A. baumannii IHMA 2233430, Kazakhstan 2020, MDR, read-out: MIC", "value": 4, "unit": "µg/mL"}, {"measurement": "MIC", "setting": "[1]; A. baumannii IHMA 2233548, Kazakhstan 2020, Non-MDR, read-out: MIC", "value": 0.12, "unit": "µg/mL"}, {"measurement": "MIC", "setting": "[1]; A. baumannii IHMA 2238964, Thailand 2020, MDR, read-out: MIC", "value": 1, "unit": "µg/mL"}, {"measurement": "MIC", "setting": "[1]; A. baumannii IHMA 2239052, Thailand 2020, Non-MDR, read-out: MIC", "value": 0.12, "unit": "µg/mL"}, {"measurement": "MIC", "setting": "[1]; A. baumannii IHMA 2261047, Belgium 2020, MDR, read-out: MIC", "value": 1, "unit": "µg/mL"}, {"measurement": "MIC", "setting": "[1]; A. baumannii IHMA 2261633, Canada 2020, Non-MDR, read-out: MIC", "value": 0.25, "unit": "µg/mL"}, {"measurement": "MIC", "setting": "[1]; A. baumannii IHMA 2274234, South Africa 2020, MDR, read-out: MIC", "value": 2, "unit": "µg/mL"}, {"measurement": "MIC", "setting": "[1]; A. baumannii IHMA 2274364, South Africa 2020, MDR, read-out: MIC", "value": 4, "unit": "µg/mL"}, {"measurement": "MIC", "setting": "[1]; A. baumannii IHMA 2275237, Chile 2020, Non-MDR, read-out: MIC", "value": 0.12, "unit": "µg/mL"}, {"measurement": "MIC", "setting": "[1]; A. baumannii IHMA 2275751, Jordan 2020, MDR, read-out: MIC", "value": 2, "unit": "µg/mL"}, {"measurement": "MIC", "setting": "[1]; A. baumannii IHMA 2316205, United States 2020, MDR, read-out: MIC", "value": 4, "unit": "µg/mL"}, {"measurement": "MIC", "setting": "[1]; MDR n = 50, read-out: MAX (maximum MIC; all strains inhibited)", "value": 8, "unit": "µg/mL"}, {"measurement": "MIC50", "setting": "[1]; MDR n = 50", "value": 2, "unit": "µg/mL"}, {"measurement": "MIC90", "setting": "[1]; MDR n = 50", "value": 4, "unit": "µg/mL"}, {"measurement": "MIC", "setting": "[1]; MDR n = 50, read-out: MIN (minimum MIC)", "value": 0.5, "unit": "µg/mL"}, {"measurement": "MIC", "setting": "[1]; all isolates n = 100, read-out: MAX (maximum MIC; all strains inhibited)", "value": 8, "unit": "µg/mL"}, {"measurement": "MIC50", "setting": "[1]; all isolates n = 100", "value": 0.5, "unit": "µg/mL"}, {"measurement": "MIC90", "setting": "[1]; all isolates n = 100", "value": 4, "unit": "µg/mL"}, {"measurement": "MIC", "setting": "[1]; all isolates n = 100, read-out: MIN (minimum MIC)", "value": 0.06, "unit": "µg/mL"}, {"measurement": "MIC", "setting": "[1]; non-MDR n = 50, read-out: MAX (maximum MIC)", "value": 4, "unit": "µg/mL"}, {"measurement": "MIC50", "setting": "[1]; non-MDR n = 50", "value": 0.25, "unit": "µg/mL"}, {"measurement": "MIC90", "setting": "[1]; non-MDR n = 50", "value": 0.5, "unit": "µg/mL"}, {"measurement": "MIC", "setting": "[1]; non-MDR n = 50, read-out: MIN (minimum MIC)", "value": 0.06, "unit": "µg/mL"}, {"measurement": "MAX (maximum MIC; all strains inhibited)", "setting": "[1]; MDR n = 50", "value": 8, "unit": "µg/mL"}, {"measurement": "MAX (maximum MIC; all strains inhibited)", "setting": "[1]; all isolates n = 100", "value": 8, "unit": "µg/mL"}, {"measurement": "MIC (QC, repeated tests)", "setting": "[2]", "value": 4, "unit": "µg/mL"}, {"measurement": "MIC", "setting": "[2]; Pseudomonas aeruginosa, ATCC27853, read-out: MIC (QC, repeated tests)", "value": 8, "unit": "µg/mL"}]}]}
